Key:
[1] = tested on: NCI-H1155 Tumor Xenografts; experiment: LC-MS Analysis of NAD+ in NCI-H1155 Tumor Xenografts; type: in vivo, mice; details: oral gavage
Method: The purpose of this assay is to measure effects of NAMPT inhibitors on NAD^+ formation in cancer cells. LC-MS analysis of NAD^+ metabolites: nicotinamide mononucleotide (NMN), NAD^+, reduced nicotinamide adenine dinucleotide (NADH), and nicotinamide adenine dinucleotide phosphate (NADP) is performed on an HPLC system coupled to a Thermo Quantum Ultra triple quadrupole mass spectrometer operated in positive heated electrospray mode with selected reaction monitoring detection. For cell extracts, 50 μL of extract and 10 μL of 10 μM internal standard (IS) solution is transferred to a 96-well plate, dried under nitrogen and reconstituted in 50 μL of water. For tissue extracts, 20 μL of extract and 10 μL of IS solution are dried and reconstituted in 50 μL water. The IS solution contains 10 μM nicotinamide-d4 (C/D/N Isotopes), nicotinic acid-d4 (C/D/N Isotopes), nicotinamide mononucleotide-d4 (prepared by custom synthesis) and nicotinamide 1,N^6-ethenoadenine dinucleotide in methanol. The metabolites are separated on a Waters XBRIDGE™ Amide (2.1×50 mm, 3 μm) with an injection volume of 10 μL and a flow rate of 1 mL/minute using 10 mM ammonium acetate in 95% acetonitrile for mobile phase A and 10 mM ammonium acetate in 50% acetonitrile for mobile phase B. The gradient is as follows: 0 minutes, 0% B; 2.5 minutes, 70% B; 2.51 minutes, 100% B; 2.8 minutes, 100% B; 2.81 minutes, 0% B, 3.6 minutes, 0% B.
The purpose of this assay is to measure the effects of NAMPT inhibitors on NAD^+ levels in vivo as described above. Tumors are grown and treated as described below for efficacy in xenograft tumor models below (7 animals/group). Each compound is also formulated as described for efficacy in xenograft tumor models below. Vehicle is 20% of CAPTISOL® and 25 mM of phosphate buffer, pH 2 without compound. After the completion of the treatment, tumor tissues (˜50 mg each) are homogenized in an ice cold extraction buffer (1 mL of 70% methanol/water; HPLC grade for 2 minutes in a tissue lyser II (QIAGEN™) at frequency 30 Hz. The resulting preparations are centrifuged at 14000×g for 6 minutes. The supernatant fractions (500 μL each) are collected and extracted with chloroform (0.5 mL). The aqueous fractions (0.3 mL each) are collected into a 96-well plate ready for LC-MS analysis. The LC-MS analysis of NAD metabolites is performed as described above.
The purpose of this assay is to measure reduction in tumor volume in response to test compound administration. A2780 and NCI-H1155 (NSCLC) cells are grown as described above for IVTI studies. Cells are harvested and injected subcutaneously onto the rear flank of nude mice. When tumors are established (7-21 days after implant), animals are randomized and grouped into control and test groups (7 animals/group). The test compound is formulated in 20% of CAPTISOL® and 25 mM of phosphate buffer, pH 2. Test compound and vehicle (20% of CAPTISOL® and 25 mM of phosphate buffer, pH 2 without compound) are administered by oral gavage. Tumor response is determined by tumor volume measurement (caliper) performed twice a week during the course of treatment and reported as percent of tumor volume of each treatment group divided by tumor volume of the vehicle control group. […]

[2] = tested on: HCC1937 (breast cancer) cells; experiment: Cell Viability Assay, HCC1937; type: cell-based; details: Homo sapiens, 72 hours
Method: (§1) The purpose of this assay is to measure the ability of a compound to reduce viability of different cancer cells dependent on the NAMPT-mediated NAD^+ formation in vitro. HCC1937 (breast cancer) cells are cultured in RPMI-1640 supplemented with 10% FBS. Calu-6 (lung cancer) cells and MCF-7 (breast cancer) cells are cultured in Minimum Essential Medium (MEM) (Gibco11095) supplemented with 1 mM sodium pyruvate (Gibco 11360), 1% Non-Essential Amino Acids Solution (100×; Gibco 11140) and 10% FBS. NCI-H1155 (lung cancer) cells are cultured in Dulbecco's Modified Eagle Medium (DMEM) (Gibco 11965) with 10% FBS. […] Cell viability is analyzed by using an assay kit (CYTOTOX-GLO™ Cytotoxicity Assay kit, Promega) according to the manufacturer's instructions as follows. […] Luminescence is measured using a Wallac Victor3 V 1420 Multilabel Counter (Perkin Elmer), referred to as dead cell luminescence. […] After the plate is incubated at room temperature for 15 minutes, luminescence is measured using the plate reader, referred to as total luminescence. Viable cell luminescence (CPS) is calculated by subtracting the dead cell luminescence from the total luminescence Inhibition of cell viability is calculated based on the equation as follows:
(§2) Inhibition (%)=(CPSnegative−CPSsample)/(CPSnegative−CPSpositive)*100 where CPS is the luminescence of viable cells.

[3] = tested on: NCI-H1155 (lung cancer) cells; experiment: Cell Viability Assay, NCI-H1155; type: cell-based; details: Homo sapiens, 72 hours
Method: as §1, §2

CC(C)(O)CS(=O)(=O)Nc1ccc2c(c1)CCN(C(=O)COc1cccnc1)C2 [Example 1, 2-Hydroxy-2-methyl-N-[2-[2-(3-pyridyloxy)acetyl]-3,4-dihydro-1H-isoquinolin-6-yl]propane-1-sulfonamide]
NAD levels (pmol/mg tissue) ([1]; 2.5 mg/kg (BID)): 11.38 pmol/mg tissue | NAD levels (pmol/mg tissue) ([1]; 5 mg/kg (BID)): 7.48 pmol/mg tissue | NAD levels (pmol/mg tissue) ([1]; 10 mg/kg (BID)): 3.63 pmol/mg tissue | NAD levels (pmol/mg tissue) ([1]; 20 mg/kg (BID)): 1.82 pmol/mg tissue | IC50 [2]: 333 ± 32 nM | IC50 [3]: 18 ± 3 nM

COCCS(=O)(=O)Nc1ccc2c(c1)CCN(C(=O)COc1cccnc1)C2 [Example 2, 2-Methoxy-N-[2-[2-(3-pyridyloxy)acetyl]-3,4-dihydro-1H-isoquinolin-6-yl]ethanesulfonamide]
NAD levels (pmol/mg tissue) ([1]; 8 mg/kg (BID)): 5.19 pmol/mg tissue | NAD levels (pmol/mg tissue) ([1]; 16 mg/kg (BID)): 1.98 pmol/mg tissue | NAD levels (pmol/mg tissue) ([1]; 32 mg/kg (BID)): 0.84 pmol/mg tissue | IC50 [2]: 1040 ± 664 nM | IC50 [3]: 37 ± 16 nM

— patent US20160229835A1, “NOVEL PYRIDYLOXYACETYL TETRAHYDROISOQUINOLINE COMPOUNDS USEFUL AS NAMPT INHIBITORS” (ELI LILLY AND COMPANY, priority 2013, published 2016)
